Consider 23 compounds from patent US10106559B2, “Substituted tetrahydrocarbazole and carbazole carboxamide compounds” (BRISTOL-MYERS SQUIBB COMPANY, priority 2013, dated 2018).

Experiment [1] deals with human recombinant Btk (Homo sapiens (Human), UniProt Q06187). As to the kind of experiment: Human Recombinant Btk Enzyme Assay. It counts as biochemical.
For experiment [2], the system named is CD69 expression on B cells in human whole blood. Put plainly: Whole Blood Assay of BCR-Stimulated CD69 Expression on B Cells. Conditions: B-cell. The class given is cell-based.
The target of experiment [3] is Jak2 tyrosine kinase (Homo sapiens (Human), UniProt O60674). As to the kind of experiment: Jak2 Tyrosine Kinase Assay. The class given is biochemical. Conditions: for Ratio of Jak2/Btk IC50 values: selectivity: Jak2 IC50 divided by Btk IC50.
Jak2 tyrosine kinase, sequence (O60674 whole entry): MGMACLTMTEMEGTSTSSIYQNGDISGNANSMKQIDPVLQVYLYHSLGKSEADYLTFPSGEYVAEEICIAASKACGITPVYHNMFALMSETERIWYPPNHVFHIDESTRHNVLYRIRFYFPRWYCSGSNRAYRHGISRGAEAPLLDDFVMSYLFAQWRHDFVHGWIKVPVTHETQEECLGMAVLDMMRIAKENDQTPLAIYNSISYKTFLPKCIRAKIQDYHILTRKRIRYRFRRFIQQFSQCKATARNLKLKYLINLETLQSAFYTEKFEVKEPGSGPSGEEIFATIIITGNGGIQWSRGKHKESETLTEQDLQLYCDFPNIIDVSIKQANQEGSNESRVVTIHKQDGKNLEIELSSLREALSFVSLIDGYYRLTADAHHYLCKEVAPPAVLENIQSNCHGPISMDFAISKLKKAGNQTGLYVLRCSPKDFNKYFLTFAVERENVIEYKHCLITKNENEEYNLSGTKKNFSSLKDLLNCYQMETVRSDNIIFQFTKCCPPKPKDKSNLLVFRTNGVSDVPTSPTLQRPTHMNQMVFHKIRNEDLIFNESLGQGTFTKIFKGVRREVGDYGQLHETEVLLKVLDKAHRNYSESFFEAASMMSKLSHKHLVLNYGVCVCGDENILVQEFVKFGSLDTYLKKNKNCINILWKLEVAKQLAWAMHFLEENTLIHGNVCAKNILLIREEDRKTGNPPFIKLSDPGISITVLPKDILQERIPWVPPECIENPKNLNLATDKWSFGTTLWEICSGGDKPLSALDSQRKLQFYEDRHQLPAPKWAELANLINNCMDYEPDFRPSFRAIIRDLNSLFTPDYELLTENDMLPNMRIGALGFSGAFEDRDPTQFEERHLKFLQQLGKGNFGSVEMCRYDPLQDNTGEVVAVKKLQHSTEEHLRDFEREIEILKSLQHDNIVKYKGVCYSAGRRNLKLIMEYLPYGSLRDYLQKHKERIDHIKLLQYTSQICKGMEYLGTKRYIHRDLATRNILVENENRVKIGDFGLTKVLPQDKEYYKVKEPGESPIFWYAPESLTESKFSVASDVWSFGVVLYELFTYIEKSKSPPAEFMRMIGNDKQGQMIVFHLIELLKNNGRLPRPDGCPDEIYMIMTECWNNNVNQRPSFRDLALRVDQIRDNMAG

human recombinant Btk, sequence (Q06187 whole entry): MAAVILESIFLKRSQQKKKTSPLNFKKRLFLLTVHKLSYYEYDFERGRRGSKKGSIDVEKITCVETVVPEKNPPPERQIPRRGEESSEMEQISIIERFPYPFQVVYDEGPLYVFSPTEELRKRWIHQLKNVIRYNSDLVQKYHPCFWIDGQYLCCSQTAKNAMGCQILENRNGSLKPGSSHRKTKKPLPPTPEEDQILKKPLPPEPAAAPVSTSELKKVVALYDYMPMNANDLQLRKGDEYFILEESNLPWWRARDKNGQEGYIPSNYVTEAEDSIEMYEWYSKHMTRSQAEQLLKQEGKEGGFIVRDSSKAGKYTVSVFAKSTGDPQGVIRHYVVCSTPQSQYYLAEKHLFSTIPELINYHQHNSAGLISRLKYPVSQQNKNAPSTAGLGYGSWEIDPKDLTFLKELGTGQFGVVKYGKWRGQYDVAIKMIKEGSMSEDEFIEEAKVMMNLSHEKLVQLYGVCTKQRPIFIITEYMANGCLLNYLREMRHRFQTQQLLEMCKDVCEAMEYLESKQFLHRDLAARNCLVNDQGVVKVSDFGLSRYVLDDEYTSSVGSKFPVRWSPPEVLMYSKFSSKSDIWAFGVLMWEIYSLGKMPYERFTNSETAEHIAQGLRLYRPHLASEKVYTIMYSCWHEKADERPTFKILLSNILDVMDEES

What is called IC50 is the point on the concentration scale where inhibition reaches its midpoint. Regarding `Cc1c(-c2c(F)cc(C(N)=O)c3[nH]c4cc(C(C)(C)O)ccc4c23)cccc1-n1c(=O)[nH]c2c(F)cc(F)cc2c1=O` [Example 49], the half-maximal inhibitory concentration (IC50) in experiment [1] is 0.77 nM; in experiment [2], 17 nM; in experiment [3] it was greater than 2000 nM. In addition, the “Ratio of Jak2/Btk IC50 values” in experiment [3] is on record as greater than 2600.

`Cc1c(-c2c(F)cc(C(N)=O)c3[nH]c4c(c23)CC[C@H](C(C)(C)O)C4)cccc1-n1c(=O)cc2c(F)cccn2c1=O` (single isomer, unassigned) [Example 68]: the concentration for half-maximal inhibition (IC50) in experiment [2] is 75 nM. The “Ratio of Jak2/Btk IC50 values” in experiment [3] was 630.

Take `Cc1c(-c2c(F)cc(C(N)=O)c3[nH]c4cc(C(C)(C)O)ccc4c23)cccc1-n1c(=O)[nH]c2c(Cl)cccc2c1=O` (single isomer, unassigned) [Example 54]: in experiment [1], the IC50 came out at 0.35 nM. In experiment [3], the IC50 is 1200 nM and the “Ratio of Jak2/Btk IC50 values” is 3400.

`COc1cccn2c(=O)n(-c3cccc(-c4c(Cl)cc(C(N)=O)c5[nH]c6cc(C(C)(C)O)ccc6c45)c3C)c(=O)cc12` [Example 37, 3-Chloro-7-(2-hydroxypropan-2-yl)-4-(3-(5-methoxy-1,3-dioxo-1H-pyrido[1,2-c]pyrimidin-2(3H)-yl)-2-methylphenyl)-9H-carbazole-1-carboxamide] had an IC50 in experiment [2] of 200 nM. Besides, the “Ratio of Jak2/Btk IC50 values” in experiment [3] is given as 690.

Consider `Cc1c(-c2c(F)cc(C(N)=O)c3[nH]c4cc(C(C)(C)O)ccc4c23)cccc1-n1c(=O)c2cccc(F)c2n(C)c1=O` (single isomer, unassigned) [Example 74], for which the half-inhibitory concentration (IC50) amounted to 180 nM in experiment [2] and 4300 nM in experiment [3].

With `[2H]C([2H])([2H])n1c(=O)n(-c2cccc(-c3c(F)cc(C(N)=O)c4[nH]c5c(c34)CC[C@H](C(C)(C)O)C5)c2C)c(=O)c2cccc(F)c21` (single isomer, unassigned) [Example 62], the IC50 in experiment [2] is 74 nM. Further, in experiment [3], the “Ratio of Jak2/Btk IC50 values” is listed as greater than 4900.

In the case of `Cc1c(-c2c(F)cc(C(N)=O)c3[nH]c4cc(C(C)(C)O)ccc4c23)cccc1-n1c(=O)[nH]c2c(Cl)cccc2c1=O` (single isomer, unassigned) [Example 53], the IC50 in experiment [1] turned out to be 1.1 nM. Also, in experiment [3], the midpoint of inhibition, the IC50, lay at 2200 nM and the “Ratio of Jak2/Btk IC50 values” was 2000.

Turning to `Cc1c(-c2c(F)cc(C(N)=O)c3[nH]c4c(c23)CC[C@H](C(C)(C)O)C4)cccc1-n1c(=O)[nH]c2c(Cl)cccc2c1=O` (single isomer, unassigned) [Example 63], it took 190 nM to reach half-maximal inhibition in experiment [2] (IC50). Moreover, the “Ratio of Jak2/Btk IC50 values” in experiment [3] was determined as 24000.

In the case of `Cc1cc(C(N)=O)c2[nH]c3cc(C(C)(C)O)ccc3c2c1-c1cccc(-n2c(=O)[nH]c3c(F)cccc3c2=O)c1C` (single isomer, unassigned) [Example 66], the half-inhibitory concentration (IC50) in experiment [1] was 0.34 nM; in experiment [2], 89 nM.

On to `Cc1c(-c2c(F)cc(C(N)=O)c3[nH]c4cc(C(C)(C)O)ccc4c23)cccc1-n1c(=O)[nH]c2c(F)cc(F)cc2c1=O` (single isomer, unassigned) [Example 50], for which the IC50 in experiment [1] is 0.32 nM; in experiment [3] it was 1200 nM. In addition, in experiment [3], the “Ratio of Jak2/Btk IC50 values” came out at 3800.

Consider `Cc1c(-c2c(C#N)cc(C(N)=O)c3[nH]c4cc(C(C)(C)O)ccc4c23)cccc1-n1c(=O)cc2c(Cl)cccn2c1=O` (single isomer, unassigned) [Example 72], for which the half-inhibitory concentration (IC50) in experiment [1] was 0.49 nM; in experiment [2], 200 nM; in experiment [3] it was 770 nM. In addition, in experiment [3], the “Ratio of Jak2/Btk IC50 values” came to 1600.

For `Cc1c(-c2c(Cl)cc(C(N)=O)c3[nH]c4c(c23)CC[C@H](C(C)(C)O)C4)cccc1-n1c(=O)[nH]c2c(F)cc(F)cc2c1=O` (single isomer, unassigned) [Example 57], the concentration for half-maximal inhibition (IC50) in experiment [2] stood at 54 nM. The “Ratio of Jak2/Btk IC50 values” in experiment [3] is 1100.

As to `Cc1c(-c2c(F)cc(C(N)=O)c3[nH]c4cc(C(C)(C)O)ccc4c23)cccc1-n1c(=O)[nH]c2cc(F)ccc2c1=O` (single isomer, unassigned) [Example 51], the results for the IC50 in experiment [1], in experiment [2] and in experiment [3] were 0.3 nM, 190 nM and greater than 2000 nM, respectively. Also, in experiment [3], the “Ratio of Jak2/Btk IC50 values” is reported as greater than 6700.

For `Cc1c(-c2c(Cl)cc(C(N)=O)c3[nH]c4cc(C(C)(C)O)ccc4c23)cccc1-n1c(=O)c2ccccc2n(C)c1=O` [Example 3, 3-Chloro-7-(2-hydroxypropan-2-yl)-4-(R)-(2-methyl-3-(1-methyl-2,4-dioxo-1,2-dihydroquinazolin-3(4H)-yl)phenyl)-9H-carbazole-1-carboxamide], the midpoint of inhibition in experiment [2], the IC50, lay at 130 nM.

In experiment [2], `Cc1c(-c2c(F)cc(C(N)=O)c3[nH]c4c(c23)CC[C@H](C(C)(C)O)C4)cccc1-n1c(=O)[nH]c2c(F)cccc2c1=O` (single isomer, unassigned) [Example 59] showed an IC50 of 260 nM.

`CC(C)(O)c1ccc2c(c1)[nH]c1c(C(N)=O)cc(Cl)c(-c3cccc(-n4c(=O)[nH]c5c(F)cccc5c4=O)c3Cl)c12` [Example 47, 3-Chloro-4-(R)-(2-chloro-3-(8-fluoro-2,4-dioxo-1,2-dihydroquinazolin-3(4H)-yl)phenyl)-7-(2-hydroxypropan-2-yl)-9H-carbazole-1-carboxamide]: the IC50 in experiment [2] stood at 27 nM.

In turn, `Cc1c(-c2c(F)cc(C(N)=O)c3[nH]c4c(c23)CC[C@H](C(C)(C)O)C4)cccc1-n1c(=O)cc2c(Cl)cccn2c1=O` (single isomer, unassigned) [Example 64] registered a half-maximal inhibitory concentration (IC50) in experiment [2] of 88 nM.

Consider `Cc1c(-c2c(Cl)cc(C(N)=O)c3[nH]c4cc(C(C)(C)O)ccc4c23)cccc1-n1c(=O)c2cc(F)ccc2n(C)c1=O` [Example 8, 3-Chloro-4-(R)-(3-(6-fluoro-1-methyl-2,4-dioxo-1,2-dihydroquinazolin-3(4H)-yl)-2-methylphenyl)-7-(2-hydroxypropan-2-yl)-9H-carbazole-1-carboxamide], for which the IC50 in experiment [2] stood at 75 nM.

For the compound `Cc1c(-c2c(Cl)cc(C(N)=O)c3[nH]c4cc(C(C)(C)O)ccc4c23)cccc1-n1c(=O)[nH]c2c(F)cc(F)cc2c1=O` (single isomer, unassigned) [Example 48], the IC50 in experiment [1] came out at 0.33 nM; in experiment [2] it was 25 nM; in experiment [3], 1100 nM. The “Ratio of Jak2/Btk IC50 values” in experiment [3] turned out to be 3300.

Compound `Cc1c(-c2c(F)cc(C(N)=O)c3[nH]c4cc(CCO)ccc4c23)cccc1-n1c(=O)cc2c(F)cccn2c1=O` [Example 70] came in with an IC50 in experiment [2] of 66 nM. Further, the “Ratio of Jak2/Btk IC50 values” in experiment [3] was found to be 930.

On to `Cc1cc(C(N)=O)c2[nH]c3cc(C(C)(C)O)ccc3c2c1-c1cccc(-n2c(=O)cc3c(Cl)cccn3c2=O)c1C` [Example 71], for which the IC50 stood at 0.41 nM in experiment [1] and 800 nM in experiment [3].

In experiment [2], `[2H]C([2H])([2H])n1c(=O)n(-c2cccc(-c3c(F)cc(C(N)=O)c4[nH]c5cc(C(C)(C)O)ccc5c34)c2C)c(=O)c2cccc(F)c21` (single isomer, unassigned) [Example 52] came in with an IC50 of 25 nM.

In turn, `COc1cccc2c(=O)n(-c3cccc(-c4c(Cl)cc(C(N)=O)c5[nH]c6cc(C(C)(C)O)ccc6c45)c3C)c(=O)n(C)c12` [Example 7, 3-Chloro-7-(2-hydroxypropan-2-yl)-4-(R)-(3-(8-methoxy-1-methyl-2,4-dioxo-1,2-dihydroquinazolin-3(4H)-yl)-2-methylphenyl)-9H-carbazole-1-carboxamide] displayed an IC50 in experiment [2] of 130 nM.
